Measurements from patent US8318731B2, “Pyrrolopyrimidines” (Janssen Pharmaceutica NV, priority 2007, dated 2012).

Assays:
H1299 = assay: Cellular proliferation assay (Alamar blue), H1299; format: cell-based; conditions: Homo sapiens, NCI-H1299, H1299 cells; 10% FCS; 72 h with compound; Alamar blue 4 h; read-out: pIC50 H1299 (converted)
Description: (§1) Cellular proliferation of these compounds was tested on a panel of different cell lines in the presence of 10% FCS serum (37° C. and 5% (v/v) CO2). In a first step these cells were seeded and incubated for 24 hours in the absence of compound. In the second step the cells were incubated for 72 hours with the compounds to be tested for 72 hours. The viable cell number was finally assessed in a standard Alamar blue cell viability assay.
(§2) The viable cell number was assessed by incubation for either 4 h (HCT-116, H1299) 6 h (U87-MG) or 24 h (A2780, PC3, MDA-MB-231) with Alamar blue (Resazurin 9 μg/ml, K-Ferrocyanide 90 μM, K-Ferricyanide 90 μM) and the converted fluorescent product was quantified on a fluorescent plate readed (544 nm/590 nm). Effect of the compounds is calculated as of on control cells.

PC3 = assay: Cellular proliferation assay (Alamar blue), PC3; format: cell-based; conditions: Homo sapiens, PC-3, PC-3 cells; 10% FCS; 72 h with compound; Alamar blue 24 h; read-out: pIC50 PC-3 (converted)
Description: as §1, §2

HCT-116 = assay: Cellular proliferation assay (Alamar blue), HCT-116; format: cell-based; conditions: Homo sapiens; HCT-116 cells; 10% FCS; 72 h with compound; Alamar blue 4 h; read-out: pIC50 HCT-116 (converted)
Description: as §1, §2

PLK4 (h) = target: T1, PLK4 (h) (Homo sapiens, UniProt O00444); assay: PLK-4 human kinase scintillation proximity assay (SPA); format: biochemical; conditions: 1 μM ATP, 60 minutes at r.t., read-out: PLK4 pIC50 (converted)
T1 sequence (O00444 1-970): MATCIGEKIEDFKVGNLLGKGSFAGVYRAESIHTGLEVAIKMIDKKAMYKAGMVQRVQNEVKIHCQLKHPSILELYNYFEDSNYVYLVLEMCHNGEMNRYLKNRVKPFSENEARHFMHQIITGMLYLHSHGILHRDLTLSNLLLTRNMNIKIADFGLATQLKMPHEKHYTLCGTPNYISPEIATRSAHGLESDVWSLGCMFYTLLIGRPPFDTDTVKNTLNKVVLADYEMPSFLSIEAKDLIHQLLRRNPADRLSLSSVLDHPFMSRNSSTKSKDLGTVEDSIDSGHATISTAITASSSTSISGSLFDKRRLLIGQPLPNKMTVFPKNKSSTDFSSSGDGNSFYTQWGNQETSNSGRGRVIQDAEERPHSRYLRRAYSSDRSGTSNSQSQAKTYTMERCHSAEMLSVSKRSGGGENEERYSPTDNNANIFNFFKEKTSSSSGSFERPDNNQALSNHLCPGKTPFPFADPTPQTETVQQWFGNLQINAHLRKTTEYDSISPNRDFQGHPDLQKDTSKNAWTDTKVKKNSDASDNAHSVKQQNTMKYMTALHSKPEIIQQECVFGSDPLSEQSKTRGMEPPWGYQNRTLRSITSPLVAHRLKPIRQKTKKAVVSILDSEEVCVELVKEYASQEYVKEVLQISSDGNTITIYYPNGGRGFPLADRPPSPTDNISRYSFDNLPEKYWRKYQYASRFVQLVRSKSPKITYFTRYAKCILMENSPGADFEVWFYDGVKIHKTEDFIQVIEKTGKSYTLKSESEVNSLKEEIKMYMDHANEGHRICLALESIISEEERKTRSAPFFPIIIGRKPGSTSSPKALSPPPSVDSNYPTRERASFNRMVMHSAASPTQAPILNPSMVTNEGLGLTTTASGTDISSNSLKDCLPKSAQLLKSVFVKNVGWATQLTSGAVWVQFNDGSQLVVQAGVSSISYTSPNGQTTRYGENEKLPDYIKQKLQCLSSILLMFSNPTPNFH
Description: The in vitro inhibition of a panel of kinases was assessed using either the scintillation proximity assay (SPA) as described by Cook, N. D. et al., Advances in Experimental Medicine and Biology (1991), 36; p. 525-528.
In the SPA technology the activity of the kinase of interest is measured using an appropriate biotinylated substrate that is incubated with the aforementioned kinase protein in the presence of (^33P) radiolabeled ATP. (^33P) Phosphorylation of the substrate is subsequently measured through binding of the phosphorylated substrate to streptavidine coated beads that are based on the scintillant poly(vinyl toluene) (PVT-Beads). The scintillation intensity is detected by imaging on Leadseeker.
All kinases are pre-diluted to a 10× working concentration prior to addition into the assay. The composition of the dilution buffer for each kinase is detailed below.
In a final reaction volume of 30 μl, PLK4 (h) (19 μg/ml) is incubated with 50 mM Hepes pH 8.0, 10 mM MgCl2, 50 mM NaCl, 1 mM NaF, 1 mM DTT, 10 μM of peptide Biotin-RPRGQRDSSYYWE-OH, 1 μM ATP and 2 nM [γ-^33P-ATP] (6.0 μCi/ml). After incubation of 60 minutes at r.t., the reaction is stopped by addition of 40 μL of stop solution containing 8.7 mM EDTA, BSA 0.17%, 0.17% Triton X-100, 1.7 mg/ml SPA beads (GE-healthcare). The plate is centrifuged and read for Scintillation imaging on Leadseeker.

U87-MG = assay: Cellular proliferation assay (Alamar blue), U87-MG; format: cell-based; conditions: Homo sapiens, U-87 MG; U87-MG cells; 10% FCS; 72 h with compound; Alamar blue 6 h; read-out: pIC50 U87MG (converted)
Description: as §1, §2

A2780 = assay: Cellular proliferation assay (Alamar blue), A2780; format: cell-based; conditions: Homo sapiens, A2780, A2780 cells; 10% FCS; 72 h with compound; Alamar blue 24 h; read-out: pIC50 A2780 (converted)
Description: as §1, §2

MDA-MB-231 = assay: Cellular proliferation assay (Alamar blue), MDA-MB-231; format: cell-based; conditions: Homo sapiens, MDA-MB-231, MDA-MB-231 cells; 10% FCS; 72 h with compound; Alamar blue 24 h; read-out: pIC50 MDA/MB231 (converted)
Description: as §1, §2

SMILES | IC50 (H1299) [µM] | IC50 (PC3) [µM] | IC50 (HCT-116) [µM] | IC50 (PLK4 (h)) [µM] | IC50 (U87-MG) [µM] | IC50 (A2780) [µM] | IC50 (MDA-MB-231) [µM]
COc1ccc2cc1OCC(=O)N1CCC[C@@H]1CN(C)CCCc1c[nH]c3ncnc(c13)N2 [Compound 38] | > 10 | > 10 | > 10 | > 10 | > 10 | > 10 | > 10
COc1ccc2cc1CN(C)CC(=O)N(C)CCCc1c[nH]c3ncnc(c13)N2 [Compound 34] | > 10 | > 10 | > 10 | > 10 | > 10 | > 10 | > 10
COc1ccc2cc1CN(C(C)C)CC(=O)N(C)CCCc1c[nH]c3ncnc(c13)N2 [Compound 37] | > 10 | > 10 | > 10 | > 10 | > 10 | > 10 | > 10
CN1CCCN(C)C(=O)COc2cc(ccc2Cl)Nc2ncnc3c2c(cn3C)C1 [Compound 146] | > 10 | > 10 | > 10 | 0.631 | > 10 | > 10 | > 10
COCCN1CC(=O)N(C)CCCc2c[nH]c3ncnc(c23)Nc2cc(c(OC)c(OC)c2)C1 [Compound 124] | > 10 | > 10 | > 10 | > 10 | > 10 | > 10 | > 10
CN1CCCN(C)C(=O)COc2cc(ccc2OCC(=O)NC2CC2)Nc2ncnc3[nH]cc(c23)C1 [Compound 125] | 6.31 | > 10 | 5.01 | 0.0251 | > 10 | 1.26 | > 10
COc1cc2cc(c1OC)CN(C)CC(=O)N(C)CCCc1c[nH]c3ncnc(c13)N2 [Compound 72] | > 10 | > 10 | > 10 | > 10 | > 10 | > 10 | > 10
COc1cc2cc(c1OC)CN(C(C)C)CC(=O)N(C)CCCc1c[nH]c3ncnc(c13)N2 [Compound 123] | > 10 | > 10 | > 10 | > 10 | > 10 | > 10 | > 10
CN1CCCN(C)C(=O)COc2cc(ccc2NC(=O)NC2CCCCC2)Nc2ncnc3[nH]cc(c23)C1 [Compound 13] | 3.98 | > 10 | 2 | 0.0251 | 3.98 | 1 | > 10
COc1ccc2cc1OCC(=O)N(C)CCCN(Cc1ccncc1)Cc1c[nH]c3ncnc(c13)N2 [Compound 62] | > 10 | > 10 | > 10 | 0.631 | > 10 | > 10 | > 10
CCN(CCOC)CCOc1ccc2cc1OCC(=O)N(C)CCCN(C)Cc1c[nH]c3ncnc(c13)N2 [Compound 77] | 7.94 | 3.16 | 3.16 | 0.0631 | 3.16 | 2.51 | 5.01

The next lines start with the values.

IC50 (H1299) [µM] | IC50 (PC3) [µM] | IC50 (HCT-116) [µM] | IC50 (PLK4 (h)) [µM] | IC50 (U87-MG) [µM] | IC50 (A2780) [µM] | IC50 (MDA-MB-231) [µM] | SMILES
> 10 | > 10 | > 10 | 1 | > 10 | > 10 | > 10 | COc1ccc2cc1CCC(=O)N(C)CCN(C)Cc1c[nH]c3ncnc(c13)N2 [Compound 46]
> 10 | > 10 | > 10 | > 10 | > 10 | > 10 | > 10 | O=C1CCCCOc2cc(cc(C(F)(F)F)c2)Nc2ncnc3[nH]cc(c23)CN2CCN1CC2 [Compound 113]
> 10 | > 10 | > 10 | 2.51 | > 10 | > 10 | > 10 | COc1ccc2cc1OCCCCC(=O)N(C)CCN(C)Cc1c[nH]c3ncnc(c13)N2 [Compound 41]
> 10 | > 10 | > 10 | 3.16 | > 10 | > 10 | > 10 | CN1CCN(C)C(=O)CCCCOc2cccc(c2)Nc2ncnc3[nH]cc(c23)C1 [Compound 2]
> 10 | > 10 | > 10 | > 10 | > 10 | > 10 | > 10 | COc1ccc2cc1CN(C)CCCC(=O)N(C)CCCc1c[nH]c3ncnc(c13)N2 [Compound 5]
> 10 | > 10 | > 10 | > 10 | > 10 | > 10 | > 10 | COc1cc2cc(c1OC)OCCCCC(=O)N1CCN(CC1)Cc1c[nH]c3ncnc(c13)N2 [Compound 111]
2 | 3.98 | 1.58 | 0.501 | 2 | 2 | 5.01 | CN1CCCN(C)C(=O)CCc2cccc(c2)Nc2ncnc3[nH]cc(c23)C1 [Compound 21]
> 10 | > 10 | > 10 | 0.126 | > 10 | > 10 | > 10 | COc1ccc2cc1OCCCCC(=O)N(C)CCCN(C)Cc1c[nH]c3ncnc(c13)N2 [Compound 16]
> 10 | > 10 | > 10 | 2 | > 10 | > 10 | > 10 | O=C1CCCCOc2cc(ccc2Cl)Nc2ncnc3[nH]cc(c23)CN2CCN1CC2 [Compound 104]
> 10 | > 10 | > 10 | 6.31 | > 10 | > 10 | > 10 | O=C1CCCOc2cc(ccc2Cl)Nc2ncnc3[nH]cc(c23)CN2CCN1CC2 [Compound 106]
> 10 | 7.94 | 5.01 | 0.0398 | 1.58 | > 10 | > 10 | CN1CCCN(C)C(=O)COc2cc(ccc2NC(=O)NC2CCCC2)Nc2ncnc3[nH]cc(c23)C1 [Compound 66]
